Patent US12503448B2, “Antibacterial and antiparasitic quinoxaline-2,3-diamine derivatives” (University College Cardiff Consultants Limited, priority 2019, dated 2025)
pEC50: −log10 of the molar value. Converted amounts (≈) assume the structure as drawn. Read-outs that look alike come from different tables or passages of the source.

Columns and labels:
[1] = system: F. hepatica newly excysted juveniles (NEJs); assay: Newly excysted juveniles (NEJs) drug screen; format: cell-based, Fasciola hepatica; parameters: scale not given here; conditions: 10 μM, 72 h; higher score indicates lower worm activity
Procedure: Newly Excysted Juveniles (NEJs) Drug Screen
F. hepatica (Italian strain) metacercariae were obtained from Ridgeway Research, Gloucestershire, UK and stored at 4° C. Newly excysted juveniles (NEJs) from metacercariae were produced based on an optimisation introduced to the excystment method published by Dixon et al. and Wilson et al (Dixon, K. E., The physiology of excystment of the metacercaria of Fasciola hepática L. Parasitology, 1966, 56, 431-456.; Wilson, L. R., Good, R. T., Panaccio, M., Wijffels, G. L., Sandeman, R. M., Spithill, T. W, Fasciola hepatica: Characterization and Cloning of the Major Cathepsin B Protease Secreted by Newly Excysted Juvenile Liver Fluke. Experimental Parasitology 1998, 88, 85-94).
After excystment, NEJs were distributed into a 24 well tissue culture plate at a density of 25 parasites per well containing 1 mL of pre-warmed NEJs culture media. Compounds were added to respective wells and NEJ/compound co-cultures were incubated at 37° C. in an atmosphere containing 5% CO2 for 72 hours at a final concentration of 10 μM.
F. hepatica NEJs (25 per well) were incubated with the three compounds at a concentration of 10 μM (in 0.1% DMSO) and cultured for 72 hrs at 37° C. in an atmosphere containing 5% CO2. Control wells (25 NEJs per well) included those containing 0.1% DMSO (solvent) and RMPI (media) as negative controls or 10 μM Triclabendazole (0.1% DMSO, as positive control, labelled “Tbz” (Comp. 3). After 72 hrs, all NEJs were scored for phenotype and motility metrics. For each treatment, an average of both phenotype and motility score was calculated based on the individual parasite scores (across two independent replicates), wherein a higher score indicates lower worm activity. SD is reported on the bar chart.

[2] = Semi thermodynamic solubility; conditions: thermodynamic from solid
[3] = system: S. mansoni schistosomula; assay: 72 hours schistosomula drug screen; format: cell-based, Schistosoma mansoni; conditions: for Selectivity Index Schistosomula: HepG2 CC50 over schistosomula EC50; for pEC50: Schistosoma mansoni
Procedure: Biological Screening 72 Hours Schistosomula Drug Screen […] G. Colley, […], Schistosoma mansoni: simplified method for the production of schistosomules., Exp. Parasitol. 35 (1974) 44-51. Newly transformed schistosomula were prepared for 72 hour high throughput screening (HTS) in 384-well black-sided microtiter plates (Perkin Elmer, MA, USA) as described in M. Nur-e-alam, M. Yousaf, […]. Bari, H. A. Ghabbour, […]. Ho, A. J. […], Neoclerodane Diterpenoids from […], Teucrium […]. Nat. […] The data obtained in this manner is shown in Table 1 in the columns labelled “Phenotype”, “Motility” and “Schistosomula average”.

[4] = system: E. coli ATCC 25922; assay: In vitro antibacterial activity; format: cell-based; conditions: Escherichia coli, ATCC25922
[5] = system: S. aureus ATCC 29213; assay: In vitro antibacterial activity; format: cell-based; conditions: Staphylococcus aureus, ATCC29213
[6] = system: M. smegmatis mc^2 15 ATCC 700084; assay: In vitro antibacterial activity; format: cell-based, Mycobacterium smegmatis; conditions: Mycolicibacterium smegmatis, ATCC700084
[7] = system: S. mansoni adult worms; assay: Adult worm drug screen (WHO scoring, WormassayGP2); format: cell-based, Schistosoma mansoni; conditions: for Selectivity Index Adult: HepG2 CC50 over adult worm EC50; for pEC50: Schistosoma mansoni, adult worms
Text: Mice (MF-1 mice, Harlan, UK), infected 7 weeks previously with 180 cercaria, were euthanised with an intraperitoneal injection of phenobarbital/heparin solution. Adult worms were recovered by perfusion of the portal system and subjected to drug screening as previously described in Padalino G, Ferla S, Brancale A, Chalmers I W, Hoffmann K F. Int J Parasitol Drugs Drug Resist. 2018 December; 8(3):559-570; in Whiteland H L, Chakroborty A, Forde-Thomas J E, Crusco A, Cookson A, Hollinshead J, Fenn C A, Bartholomew B, Holdsworth P A, Fisher M, Nash R J, Hoffmann K F. Int J Parasitol Drugs Drug Resist. 2018 December; 8(3):465-474; and in Crusco A, Bordoni C, Chakroborty A, Whatley K C L, Whiteland H, Westwell A D, Hoffmann K F. Eur J Med Chem. 2018 May 25; 152:87-100. The data obtained in this manner is shown in Table 1 in the columns labelled “Adult worm”.
Regarding the quantification of drug treatment on adult worms (e.g. decreased activity, paralysis or sluggishness), two different approaches were used, as described below. Where egg deposition was noticed, eggs were removed and counted using a Sedgewick rafter slide.
Adult worms were scored using the standardized microscopic WHO-TDR scoring system previously described by Ramirez, B., Bickle, Q., Yousif, F., Fakorede, F., Mouries, M.-A., Nwaka, S. in Schistosomes: Challenges in compound screening, Expert Opin Drug Discov. 2007 October; 2(s1): S53-61. This scoring system (0-4) identifies changes in worm movement and is defined according to the following scoring matrix: 0=no movement, 1=no movement with visible gut peristalsis, 2=minimal movement (occasional movement from anterior or posterior end of the worm), 3=slow continuous movement and 4=normal movement.
A digital image processing-based system was also used to assess parasite motility after drug treatment and is a modification of methods previously described by Marcellino C., Gut, J., Lim, K., Singh R., McKerrow, L. and Sakanari, J. WormAssay: a novel computer application for whole-plate motion-based screening of macroscopic parasites. PLoS Negl Trop Dis. 2012 January:6(1):e1494. This allowed for objective verification of the WHO method described above. The data obtained with this quantification method is shown in Table 1 in the columns labelled “Adult worm”.

[8] = system: Pseudomonas aeruginosa ATCC 27853; assay: In vitro antibacterial activity; format: cell-based; conditions: ATCC27853
[9] = system: S. epidermidis NTCT11077; assay: In vitro antibacterial activity; format: cell-based; conditions: Staphylococcus epidermidis
[10] = system: B. cereus; assay: In vitro antibacterial activity; format: cell-based; conditions: Bacillus cereus
[11] = Mouse pharmacokinetics, oral cassette dosing; conditions: male, C57/BL6, mouse, plasma, po, 2.5 mg/kg
Procedure: Non-compartmental mouse pharmacokinetics (Male C57/BL6 Mouse, Fasted; 3 mice per group) were determined after oral administration of a nominal dose of 2.5 mg/kg of these formulations in cassettes (5 compounds/group) according to the protocols employed by WuXi (https://www.wuxiapptec.com; the CRO that conducted these studies).

[12] = Metabolic stability in mouse liver microsomes; conditions: liver microsomes
[13] = system: MRSA USA 300; assay: In vitro antibacterial activity; format: cell-based; conditions: Staphylococcus aureus
[14] = system: MRSA ATCC 33591; assay: In vitro antibacterial activity; format: cell-based; conditions: Staphylococcus aureus
[15] = system: MRSA EM RSA; assay: In vitro antibacterial activity; format: cell-based; conditions: Staphylococcus aureus
Text: In vitro Determination of Antibacterial Activity
Scientific Reports 8 (1), 2018. Bacterial strains of Enterococcus faecalis—ATCC 29212, NCTC 12201, ATCC 51299; Streptococcus pneumoniae—ATCC 49619, 18778, 21394, 21395; Haemophilus influenza—ATCC 49766, 18391, 17428; Staphylococcus aureus—NCTC 12493, ATCC BAA-077, ATCC 700698, 11051; used for testing the compounds, as previously described in “Clinical laboratory testing and in vitro diagnostics test systems—Susceptibility testing of infectious agents and evaluation of performance of antimicrobial susceptibility devices—Part 1: Reference methods for testing the in vitro activity of antimicrobial agentes against bacteria involved in infectious diseases, ISO/FDIS 20776-1:2006(E). All the procedures were carried out in a biosafety containment level 2.

[16] = schistosomula, 72 hour culture, read-out: EC50 Motility
[17] = schistosomula, 72 hour culture, read-out: EC50 Phenotype
[18] = E. coli ATCC 25922, read-out: MIC90
[19] = M. smegmatis mc^2 15 ATCC 700084, read-out: MIC90
[20] = average of phenotype and motility, read-out: EC50 Schistosomula average

SMILES | Motility (M) Mean score [1] | Phenotype (P) Mean score [1] | Selectivity Index Schistosomula [3] | pEC50 [3, 16] | pEC50 [3, 17] | Selectivity Index Adult [7] | pEC50 [7] | MIC90 [4] | MIC90 [5] | MIC90 [6] | MIC90 ([8]; Pseudomonas aeruginosa) | MIC90 ([9]; NTCT11077) | MIC90 [10] | pEC50 [3, 20] | other results
CSc1nc2cc(Cl)c(Oc3cccc(Cl)c3Cl)cc2[nH]1 [Comp. 3, triclabendazole, reference compound] | 4.72 | 4.72 | – | – | – | – | – | – | – | – | – | – | – | – | –
COC(=O)C1=C(C)NC(C)=C(C(=O)OCCN(C)Cc2ccccc2)C1c1cccc([N+](=O)[O-])c1 (stereo not shown) [Nicardipine, reference compound] | – | – | – | – | – | – | – | – | – | – | – | – | – | – | solubility thermodynamic [2]: 35.4 µM (≈ 17 µg/mL)
Nc1ccc2nc(Nc3ccc(Cl)c(Cl)c3)c(Nc3ccc(Cl)c(Cl)c3)nc2c1 [Compound 15, N^2, N^3-bis(3,4-dichlorophenyl)quinoxaline-2,3,6-triamine] | 4.86 | 5.09 | 7 | 5.49 | 5.45 | – | – | – | – | – | – | – | – | – | –
O=[N+]([O-])c1ccc2nc(NCCc3ccccc3)c(NCCc3ccccc3)nc2c1 [Compound 14, 6-nitro-N^2, N^3-diphenethylquinoxaline-2,3-diamine] | 4.00 | 4.27 | – | 5.83 | 5.66 | – | – | – | – | – | – | – | – | – | MIC90 [4, 18]: > 125 µg/mL; MIC90 ([5]; S. aureus ATCC 29213, read-out: MIC90): > 125 µg/mL; MIC90 [6, 19]: 31.2 µg/mL (≈ 75.6 µM)
CCCCCC(=O)Nc1ccc2nc(Nc3ccc(Cl)c(Cl)c3)c(Nc3ccc(Cl)c(Cl)c3)nc2c1 [Compound 18, N-(2,3-bis((3,4-dichlorophenyl)amino)quinoxalin-6-yl)hexanamide] | 4.05 | 4.09 | 46 | 5.74 | 5.99 | 203 | 6.49 | > 125 µg/mL | 62.5 µg/mL (≈ 111 µM) | > 125 µg/mL | > 125 µg/mL | > 125 µg/mL | 125 µg/mL (≈ 222 µM) | – | AUC(0-t) [11]: 68.2 ng·h/mL; Cmax [11]: 16.4 ng/mL; MRT last [11]: 3.86 h; Tmax [11]: 4 h; solubility thermodynamic [2]: 15.5 µM (≈ 8.73 µg/mL); half-life at 1 μM [12]: 0.618 h; microsomal CLint at 1 μM [12]: 37.4 µL/min/mg
Clc1ccc(Nc2nc3ccc(N4CCCC4)cc3nc2Nc2ccc(Cl)c(Cl)c2)cc1Cl [Compound 16, N^2, N^3-bis(3,4-dichlorophenyl)-6-(pyrrolidin-1-yl)quinoxaline-2,3-diamine] | 2.84 | 2.95 | – | < 5.00 | < 5.00 | – | – | > 125 µg/mL | 15.6 µg/mL (≈ 30.1 µM) | > 125 µg/mL | > 125 µg/mL | > 125 µg/mL | > 125 µg/mL | – | MIC90 [13]: 62.5 µg/mL (≈ 120 µM); MIC90 [14]: 31.2 µg/mL (≈ 60.2 µM); MIC90 [15]: 62.5 µg/mL (≈ 120 µM)
O=[N+]([O-])c1ccc2nc(Nc3cccc(C(F)(F)F)c3)c(Nc3cccc(C(F)(F)F)c3)nc2c1 [Compound 10, 6-nitro-N^2, N^3-bis(3-(trifluoromethyl)phenyl)quinoxaline-2,3-diamine] | 2.71 | 2.76 | 12 | 6.24 | – | 836 | 8.15 | – | 7.81 µg/mL (≈ 15.8 µM) | – | – | – | – | 6.32 | MIC90 [4, 18]: > 125 µg/mL; MIC90 [6, 19]: > 125 µg/mL; MIC90 [13]: > 125 µg/mL; MIC90 [14]: > 125 µg/mL; MIC90 [15]: > 125 µg/mL; MIC90 ([8]; Pseudomonas aeruginosa ATCC 27853, read-out: MIC90): > 125 µg/mL; MIC90 ([9]; S. epidermidis NTCT11077, read-out: MIC90): > 125 µg/mL; MIC90 ([10]; B. cereus, read-out: MIC90): > 125 µg/mL
O=[N+]([O-])c1ccc2nc(NCc3ccccc3)c(NCc3ccccc3)nc2c1 [Compound 13, N^2, N^3-dibenzyl-6-nitroquinoxaline-2,3-diamine] | 3.14 | 3.14 | 4 | 5.58 | 5.50 | – | – | > 125 µg/mL | > 125 µg/mL | > 125 µg/mL | – | – | – | 5.53 | –
CC(=O)Nc1ccc2nc(Nc3ccc(Cl)c(Cl)c3)c(Nc3ccc(Cl)c(Cl)c3)nc2c1 [Compound 17, N-(2,3-bis((3,4-dichlorophenyl)amino)quinoxalin-6-yl)acetamide] | – | – | 4 | 5.68 | 5.59 | 12 | 6.15 | > 125 µg/mL | 62.5 µg/mL (≈ 123 µM) | > 125 µg/mL | > 125 µg/mL | < 62.5 µg/mL | < 62.5 µg/mL | 5.63 | –
